Reference: US7511041B2, “Fused azole-pyrimidine derivatives” (Bayer Pharmaceuticals Corporation, priority 2002, dated 2009)
Where two headings read alike, the source gives them in different places.

Tests used:
[1] = target: T1, Recombinant human PI3Kγ (full length human PI3K p110γ) (Homo sapiens, UniProt P48736); experiment: Kinase assay of PI3Kγ (solid-phase lipid kinase assay); format: biochemical; details: in vitro PI3K-γ inhibitory activity, read-out: in vitro PI3K-gamma
T1 construct: full length human PI3K p110γ fused with a His6-tag at the C-terminus; His6 (C); purchased ALEXIS BIOCHEMICALS #201-055-C010; host or cells: S. frugiperda 9 insect cells
T1 sequence (P48736 whole entry, the tested form may be a part): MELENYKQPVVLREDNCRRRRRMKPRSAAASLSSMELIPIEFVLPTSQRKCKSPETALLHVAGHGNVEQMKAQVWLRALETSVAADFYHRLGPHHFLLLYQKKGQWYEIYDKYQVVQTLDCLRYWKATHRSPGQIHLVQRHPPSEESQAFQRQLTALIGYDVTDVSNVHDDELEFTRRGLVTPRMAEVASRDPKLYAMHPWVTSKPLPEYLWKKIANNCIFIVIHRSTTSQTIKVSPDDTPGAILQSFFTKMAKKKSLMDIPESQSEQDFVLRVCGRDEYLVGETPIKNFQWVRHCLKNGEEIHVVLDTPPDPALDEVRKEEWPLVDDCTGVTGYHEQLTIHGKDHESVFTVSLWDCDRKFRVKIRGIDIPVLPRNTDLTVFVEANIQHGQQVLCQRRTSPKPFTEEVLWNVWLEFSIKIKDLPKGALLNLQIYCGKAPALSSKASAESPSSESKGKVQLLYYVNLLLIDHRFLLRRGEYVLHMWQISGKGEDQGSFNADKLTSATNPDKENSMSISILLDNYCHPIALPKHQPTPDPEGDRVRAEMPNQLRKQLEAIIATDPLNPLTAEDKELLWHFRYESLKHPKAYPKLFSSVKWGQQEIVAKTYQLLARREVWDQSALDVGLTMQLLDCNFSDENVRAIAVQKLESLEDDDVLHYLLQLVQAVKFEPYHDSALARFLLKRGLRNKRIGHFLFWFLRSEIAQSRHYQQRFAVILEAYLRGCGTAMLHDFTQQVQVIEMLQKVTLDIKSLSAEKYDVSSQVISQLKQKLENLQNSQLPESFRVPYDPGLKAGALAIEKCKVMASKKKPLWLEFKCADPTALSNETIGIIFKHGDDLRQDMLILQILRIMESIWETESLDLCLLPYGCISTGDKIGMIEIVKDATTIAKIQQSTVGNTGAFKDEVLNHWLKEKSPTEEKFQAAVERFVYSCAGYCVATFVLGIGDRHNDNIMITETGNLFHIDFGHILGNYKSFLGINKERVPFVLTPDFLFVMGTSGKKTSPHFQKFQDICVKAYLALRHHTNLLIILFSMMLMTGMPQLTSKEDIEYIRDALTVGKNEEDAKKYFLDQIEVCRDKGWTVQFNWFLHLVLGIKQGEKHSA

Row | IC50 ([1]; class symbols) [nM] | melting point | IC50 ([1]; class symbols A-D) [nM] | Compound
1 |  | 201 to 203 °C (dec.) | 500 to 2000 | O=C(NC1=Nc2ccccc2C2=NCCN12)c1ccccc1 [Example 2-214]
2 |  | 201 to 203 °C | > 2000 | Cc1cccc(C(=O)NC2=Nc3ccccc3C3=NCCN23)c1 [Example 2-216]
3 |  | 185 to 186 °C | > 2000 | Cc1ccc(C(=O)NC2=Nc3ccccc3C3=NCCN23)cc1 [Example 2-218]
4 |  | 246 to 248 °C | > 2000 | Cc1cc(C)cc(C(=O)NC2=Nc3ccccc3C3=NCCN23)c1 [Example 2-219]
5 |  | 216 to 218 °C | > 2000 | COc1c(C)cc(C(=O)NC2=Nc3ccccc3C3=NCCN23)cc1C [Example 2-220]
6 |  | 277 °C (dec.) | > 2000 | Cc1cc(C(=O)NC2=Nc3ccccc3C3=NCCN23)cc(C)c1[N+](=O)[O-] [Example 2-222]
7 |  | 202 to 204 °C | 500 to 2000 | O=C(NC1=Nc2ccccc2C2=NCCN12)c1ccccc1F [Example 2-224]
8 |  | 210 to 212 °C | > 2000 | O=C(NC1=Nc2ccccc2C2=NCCN12)c1ccc(F)cc1 [Example 2-225]
9 |  | 196 to 197 °C | > 2000 | O=C(NC1=Nc2ccccc2C2=NCCN12)c1cccc(Cl)c1 [Example 2-227]
10 |  | 226 to 228 °C | > 2000 | O=C(NC1=Nc2ccccc2C2=NCCN12)c1ccc(Cl)cc1 [Example 2-229]
11 |  | 268 to 269 °C | > 2000 | O=C(NC1=Nc2ccccc2C2=NCCN12)c1cc(Cl)cc(Cl)c1 [Example 2-231]
12 |  | 185 to 187 °C | > 2000 | COc1ccccc1C(=O)NC1=Nc2ccccc2C2=NCCN12 [Example 2-232]
13 |  | 202 to 204 °C | > 2000 | COc1cccc(C(=O)NC2=Nc3ccccc3C3=NCCN23)c1 [Example 2-233]
14 |  | 300 °C (dec.) | > 2000 | COc1ccc(C(=O)NC2=Nc3ccccc3C3=NCCN23)cc1 [Example 2-235]
15 |  | > 410 °C | > 2000 | CC(C)(C)Oc1ccc(C(=O)NC2=Nc3ccccc3C3=NCCN23)cc1 [Example 2-236]
16 |  | 274 °C (dec.) | 100 to 500 | COc1ccc(C(=O)NC2=Nc3ccccc3C3=NCCN23)cc1OC.Cl [Example 2-238]
17 |  | 169 to 170 °C | > 2000 | CSc1ccc(C(=O)NC2=Nc3ccccc3C3=NCCN23)cc1 [Example 2-243]
18 |  | 278 °C (dec.) | > 2000 | CS(=O)(=O)c1ccc(C(=O)NC2=Nc3ccccc3C3=NCCN23)cc1 [Example 2-245]
19 |  | 278 °C (dec.) | 500 to 2000 | NS(=O)(=O)c1ccc(C(=O)NC2=Nc3ccccc3C3=NCCN23)cc1 [Example 2-247]
20 |  | 265 to 267 °C | > 2000 | O=C(NC1=Nc2ccccc2C2=NCCN12)c1cccc([N+](=O)[O-])c1 [Example 2-252]
21 |  | 279 to 281 °C | > 2000 | O=C(NC1=Nc2ccccc2C2=NCCN12)c1ccc([N+](=O)[O-])cc1 [Example 2-254]
22 |  | 188 to 190 °C | > 2000 | CN(C)c1cccc(C(=O)NC2=Nc3ccccc3C3=NCCN23)c1 [Example 2-258]
23 |  | 208 to 210 °C | > 2000 | CN(C=O)c1ccc(C(=O)NC2=Nc3ccccc3C3=NCCN23)cc1 [Example 2-263]
24 |  | 280 °C (dec.) | > 2000 | CC(C)(C)OC(=O)Nc1cccc(C(=O)NC2=Nc3ccccc3C3=NCCN23)c1 [Example 2-265]
25 |  | 209 to 211 °C | > 2000 | O=C(NC1=Nc2ccccc2C2=NCCN12)c1ccc(-n2cccn2)cc1 [Example 2-270]

The next lines start with the molecule.

Row | Compound | IC50 ([1]; class symbols) [nM] | melting point | IC50 ([1]; class symbols A-D) [nM]
26 | Cc1nc(C)c(C(=O)NC2=Nc3ccccc3C3=NCCN23)s1 [Example 2-189] | 100 to 500 | 243 °C (dec.) | 
27 | Cc1nc(C)c(C(=O)NC2=Nc3ccccc3C3=NCCN23)s1.Cl [Example 2-190] | < 100 | 289 to 290 °C | 
28 | CCn1nc(C)cc1C(=O)NC1=Nc2ccccc2C2=NCCN12 [Example 2-191] | 100 to 500 | 207 to 208 °C | 
29 | O=C(NC1=Nc2ccccc2C2=NCCN12)c1c[nH]cn1 [Example 2-193] | 100 to 500 | 265 °C (dec.) | 
30 | Cl.O=C(NC1=Nc2cc(O)ccc2C2=NCCN12)c1cccnc1 [Example 2-195] | 100 to 500 | 270 to 274 °C (dec.) | 
31 | Cl.O=C(NC1=Nc2cc(OCCn3cccc3)ccc2C2=NCCN12)c1cccnc1 [Example 2-196] | 100 to 500 | 239 °C | 
32 | O=C(NC1=Nc2cc(OCCO)ccc2C2=NCCN12)c1cccnc1 [Example 2-197] | 100 to 500 | 210 to 215 °C (dec.) | 
33 | O=C(NC1=Nc2cc(OCCCO)ccc2C2=NCCN12)c1cccnc1 [Example 2-199] | < 100 | 127 °C | 
34 | Cl.O=C(NC1=Nc2cc(OCCCO)ccc2C2=NCCN12)c1cccnc1 [Example 2-200] | 100 to 500 | 243 °C (dec.) | 
35 | O=C(NC1=Nc2cc(OCCOCCO)ccc2C2=NCCN12)c1cccnc1 [Example 2-201] | 100 to 500 | 181 °C | 
36 | Cl.O=C(O)COc1ccc2c(c1)N=C(NC(=O)c1cccnc1)N1CCN=C21 [Example 2-203] | 100 to 500 | 231 °C (dec.) | 
37 | Cl.O=C1NCC(COc2ccc3c(c2)N=C(NC(=O)c2cccnc2)N2CCN=C32)O1 (stereo not drawn) [Example 2-204] |  | 265 to 269 °C (dec.) | 100 to 500
38 | Cl.O=C(NC1=Nc2cc(OCCN3CCOCC3)ccc2C2=NCCN12)c1cccnc1 [Example 2-205] |  | 243 to 247 °C (dec.) | 100 to 500
39 | NC(=O)COc1ccc2c(c1)N=C(NC(=O)c1cccnc1)N1CCN=C21 [Example 2-206] |  | 296 °C | 100 to 500
40 | O=C(NC1=Nc2cc(OCC(=O)N3CCOCC3)ccc2C2=NCCN12)c1cccnc1 [Example 2-207] |  | 232 to 236 °C (dec.) | 100 to 500
41 | Cl.O=C(NC1=Nc2cc(OCCCN3C(=O)c4ccccc4C3=O)ccc2C2=NCCN12)c1cccnc1 [Example 2-209] |  | 247 °C | < 100
42 | O=C(NC1=Nc2ccc(O)cc2C2=NCCN12)c1cccnc1 [Example 2-210] |  | > 300 °C | 100 to 500
43 | Cl.O=C(NC1=Nc2ccc(O)cc2C2=NCCN12)c1cccnc1 [Example 2-211] |  | > 300 °C | < 100
44 | O=C(NC1=Nc2ccc(O)cc2C2=NCCN12)c1ccc2[nH]cnc2c1 [Example 2-212] |  | 296 °C (dec.) | 100 to 500

Row | Compound | IC50 ([1]; class symbols) [nM] | melting point | IC50 ([1]; class symbols A-D) [nM]
45 | N#CCOc1ccc2c(c1)C1=NCCN1C(NC(=O)c1cccnc1)=N2 [Example 2-213] |  | 209 °C | 100 to 500
46 | O=C(NC1=Nc2ccccc2C2=NCCN12)c1ccccc1.O=C(O)C(F)(F)F [Example 2-215] |  | 238 to 242 °C | 100 to 500
47 | Cc1cccc(C(=O)NC2=Nc3ccccc3C3=NCCN23)c1.O=C(O)C(F)(F)F [Example 2-217] |  | 239 to 241 °C | 100 to 500
48 | O=C(NC1=Nc2ccccc2C2=NCCN12)c1ccccc1Cl.O=C(O)C(F)(F)F [Example 2-226] |  | 221 to 224 °C | > 2000
49 | O=C(NC1=Nc2ccccc2C2=NCCN12)c1cccc(Cl)c1.O=C(O)C(F)(F)F [Example 2-228] |  | 233 to 235 °C | 500 to 2000
50 | COc1cccc(C(=O)NC2=Nc3ccccc3C3=NCCN23)c1.O=C(O)C(F)(F)F [Example 2-234] |  | 209 to 211 °C | 500 to 2000
51 | COc1ccc(C(=O)NC2=Nc3ccccc3C3=NCCN23)c(OC)c1.Cl [Example 2-237] |  | 259 °C (dec.) | > 2000
52 | COc1cc(OC)cc(C(=O)NC2=Nc3ccccc3C3=NCCN23)c1 [Example 2-239] |  | 330 °C (dec.) | > 2000
53 | COc1cc(C(=O)NC2=Nc3ccccc3C3=NCCN23)cc(OC)c1OC.Cl [Example 2-240] |  | 291 °C (dec.) | > 2000
54 | COc1cc(C(=O)NC2=Nc3ccccc3C3=NCCN23)cc(OC)c1C [Example 2-241] |  | 248 °C (dec.) | > 2000
55 | NS(=O)(=O)c1ccc(C(=O)NC2=Nc3ccccc3C3=NCCN23)c(Cl)c1 [Example 2-249] |  | 240 °C (dec.) | > 2000
56 | O=C(NC1=Nc2ccccc2C2=NCCN12)c1ccccc1[N+](=O)[O-].O=C(O)C(F)(F)F [Example 2-251] |  | 198 to 200 °C | > 2000
57 | N#Cc1ccc(C(=O)NC2=Nc3ccccc3C3=NCCN23)cc1.O=C(O)C(F)(F)F [Example 2-256] |  | 248 to 250 °C | > 2000
58 | Nc1ccccc1C(=O)NC1=Nc2ccccc2C2=NCCN12.O=C(O)C(F)(F)F [Example 2-257] |  | 175 °C (dec.) | > 2000
59 | CN(C)c1ccc(C(=O)NC2=Nc3ccccc3C3=NCCN23)cc1.O=C(O)C(F)(F)F [Example 2-260] |  | 240 °C (dec.) | > 2000
60 | CN1CCN(c2ccc(C(=O)NC3=Nc4ccccc4C4=NCCN34)cc2)CC1 [Example 2-261] |  | 218 to 222 °C | > 2000
61 | CC(=O)Nc1cccc(C(=O)NC2=Nc3ccccc3C3=NCCN23)c1.O=C(O)C(F)(F)F [Example 2-262] |  | 253 °C (dec.) | > 2000
62 | O=C(NC1=Nc2ccccc2C2=NCCN12)c1ccc(-n2cccc2)cc1 [Example 2-266] |  | 218 to 220 °C | > 2000
63 | O=C(NC1=Nc2ccccc2C2=NCCN12)c1ccc(-n2ccnc2)cc1 [Example 2-268] |  | 267 °C (dec.) | > 2000
